Test results: US20040157811A1, “Inhibition of the growth factor dependency of tumor cells” (priority 2000, published 2004)
Entries after “also recorded” stand apart in the source; their conditions may differ.

Key:
EGF-receptor expression = EGF-receptor expression in R5020-stimulated T47D cells; assay type: cell-based, human; conditions: T47D cells stimulated with R5020
[1] = biological target: T1, progesterone receptor (PR) (Homo sapiens, UniProt P06401); assay: Transactivation assay (MTV-LUC, luciferase) in T47D cells; assay type: cell-based; conditions: T47D cells transiently transfected with MTV-LUC, treated with R5020 plus increasing concentrations, 24 hours, FIG. 3
T1 construct: T47D cells were transiently transfixed with MTV-LUC; endogenous in cells; host or cells: T47D human breast carcinoma cells
T1 sequence (P06401 1-933): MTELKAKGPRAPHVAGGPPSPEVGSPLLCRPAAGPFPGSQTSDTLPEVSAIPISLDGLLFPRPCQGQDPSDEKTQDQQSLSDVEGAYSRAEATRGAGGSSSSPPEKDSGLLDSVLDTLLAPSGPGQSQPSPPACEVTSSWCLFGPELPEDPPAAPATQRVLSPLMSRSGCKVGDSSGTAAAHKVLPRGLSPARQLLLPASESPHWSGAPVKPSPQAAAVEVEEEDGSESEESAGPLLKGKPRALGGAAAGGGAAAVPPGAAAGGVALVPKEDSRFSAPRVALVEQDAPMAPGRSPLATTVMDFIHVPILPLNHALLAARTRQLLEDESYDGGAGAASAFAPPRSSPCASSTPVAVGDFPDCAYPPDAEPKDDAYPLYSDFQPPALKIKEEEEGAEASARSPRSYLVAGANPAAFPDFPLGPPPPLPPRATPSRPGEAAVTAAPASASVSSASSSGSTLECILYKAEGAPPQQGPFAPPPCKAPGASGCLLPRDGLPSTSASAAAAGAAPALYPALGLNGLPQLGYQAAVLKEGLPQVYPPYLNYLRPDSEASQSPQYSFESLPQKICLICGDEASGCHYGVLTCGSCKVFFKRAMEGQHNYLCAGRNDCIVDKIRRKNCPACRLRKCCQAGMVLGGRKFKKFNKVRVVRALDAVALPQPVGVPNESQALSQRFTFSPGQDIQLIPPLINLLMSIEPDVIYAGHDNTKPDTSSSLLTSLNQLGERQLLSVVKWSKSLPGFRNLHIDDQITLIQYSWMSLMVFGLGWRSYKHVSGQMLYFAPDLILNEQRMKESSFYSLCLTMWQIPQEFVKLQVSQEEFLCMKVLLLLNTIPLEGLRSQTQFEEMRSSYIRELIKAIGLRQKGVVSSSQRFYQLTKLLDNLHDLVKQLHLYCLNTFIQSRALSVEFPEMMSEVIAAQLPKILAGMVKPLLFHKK
Description: T47D cells were transiently transfixed with MTV-LUC (Cato et al., EMBO J., 9: 2237-40) and cultivated in the absence or the presence of 1 nM of R5020. In the test on a PR-mediated antagonism, the transiently transfixed T47D cells were treated with R5020 and in addition with increasing concentrations of compound A or RU486. After 24 hours, a luciferase test was performed.
In the test for a PR-mediated antagonism, the transiently transfixed T47D cells were treated with 0.1 nM of R5020 and increasing concentrations of compound A or […] (b).

[2] = test system: binding of EGF to T47D cells; assay: Binding of 125I-EGF to tumor cells (R5020-pretreated T47D cells); assay type: cell-based, human; conditions: for block of the R5020-caused increase of 125I-EGF binding to intact T47D cells: T47D cells treated 48 hours with 2 or 20 nM R5020 plus test substance, FIG. 5
Description: R5020-Pretreated T47D cells were incubated for 2 hours with ^125I-EGF at 4° C. The unspecific binding was always less than 10% of the total binding.
In FIG. 4, a Scatchard analysis of the ^125I-EGF binding to T47D cells is shown. The cells were cultivated for 48 hours in the presence of 20 nM of R5020 with or without 20 nM of compound A and then washed. Then, the EGF-binding over a concentration range of 0.25 to 150 ng/ml of EGF was determined by incubation for 2 hours at 4° C. The insertions show the amount of bonded ligands relative to the logarithm of the free ligand concentration.
In FIG. 5, the binding of ^125I-EGF to intact T47D cells is shown. For this purpose, the cells were treated for 48 hours with 2 or 20 nM of R5020 plus compound A or onapristone or compound A alone.

[3] = test system: breast carcinoma cell line T47D; assay: Growth studies, antiproliferative action on T47D cells (crystal violet); assay type: cell-based, human; conditions: 0.1 nM estradiol, 6 days, increasing concentrations, FIG. 1
Description: The tumor cells were cultivated at 5000 cells/well in 96-well plates for 6 days in RPMI medium plus 10% bovine serum, 200 nM of insulin and 0.1 nM of estradiol in the presence of the compounds that are indicated in each case, and the growth was determined by staining with crystal violet.
2. […] T47D cells were cultivated in the presence (upper cross-hatching) or absence (lower cross-hatching) of 0.1 nM of E2 plus increasing concentrations of compound A (▴), onapristone (▪), ZK191703 (●) or 4-OH-Tam (♦).

| SMILES | block of R5020-increased EGF-receptor expression (EGF-receptor expression) | block of transcriptional activity of PR (PR-mediated antagonism) [1] | block of the R5020-caused increase of 125I-EGF binding to intact T47D cells [2] | block of the R5020-caused increase of 125I-EGF binding (Scatchard analysis) ([2]; T47D cells, 48 hours, 20 nM R5020 with 20 nM compound A, EGF 0.25 to 150 ng/ml, 2 hours at 4° C, FIG. 4) | antiproliferative action / block of estradiol-stimulated growth of T47D cells [3] |
| --- | --- | --- | --- | --- | --- |
| CC(=O)c1ccc([C@H]2C[C@@]3(C)[C@@H](CC[C@@]3(O)C(F)(F)C(F)(F)F)[C@@H]3CCC4=CC(=O)CCC4=C32)cc1 [compound A, 11β-(4-acetylphenyl)-17β-hydroxy-17α-(1,1,2,2,2-pentafluoroethyl)-estra-4,9-dien-3-one] | blocked | could be blocked | blocks the increase of the EGF-binding; also recorded: could be prevented | block the increase of the EGF binding | significant antiproliferative action at extremely small concentrations; also recorded: effectively blocked |
| CN(C)c1ccc([C@H]2C[C@]3(C)[C@@H](CC[C@]3(O)CCCO)[C@@H]3CCC4=CC(=O)CCC4=C32)cc1 [onapristone, 11β-[p-(dimethylamino)phenyl]-17α-hydroxy-17-(3-hydroxypropyl)-13α-estra-4,9-dien-3-one, reference compound] |  |  | considerably weaker effect; also recorded: less efficiently |  |  |
